Laboratory results published in patent publication US20070122341A1, “Benzylideneaniline derivatives and their radioisotope labeled compounds for binding and imaging of beta-amyloid plaques” (SEOUL NATIONAL UNIVERSITY INDUSTRY FOUNDATION, priority 2005, published 2007).
“And” between values parts separate entries of the source, which are not always exact repeats. Identical values can stand only once.

Tests used:
Aβ1-40 aggregates = target: T1, Aβ1-40 aggregates (Homo sapiens, UniProt P05067); assay: In vitro binding assay with Aβ1-40 aggregates, inhibition of [125I]3'-I-BTA-1 binding; details: for affinity to Aβ1-40 (in words): conclusion from Ki values of Table 2; for Ki: unlabeled compounds, Aβ1-40 aggregates 20 nM, [125I]3'-I-BTA-1 0.04 nM, 3 hr room temperature, Ki calculated from IC50
T1 construct: purchased Sigma
Method: Aggregated peptides were prepared using the solid form of peptides Aβ1-40 (purchased from Sigma) by a literature method (Klunk, W. E.; Wang, Y.; Huang, G-F.; Debnath, M. L.; Holt D. P.; Mathis, C. A. Uncharged thioflavin-T derivatives bind to amyloid-beta protein with high affinity and readily enter the brain. Life Sci. 2001, 69(13), […]). The aggregated Aβ1-40 peptide was aliquoted and stored at −70° C. Binding studies were performed according to the procedure described in the literature with some modifications (Zhuang, Z.-P.; Kung, M.-P.; Wilson, A.; Lee, C.-W.; Plossl, K.; Hou, C.; Holtzman, D. M.; Kung, H. F.; Structure-activity relationship of imidazo[1,2-a]pyridines as ligands for detecting β-amyloid plaques in the brain. J. Med. Chem. 2003; 46(2), 237-243). The Ki values of benzylideneaniline derivatives were evaluated with Aβ1-40 aggregates.
The reaction mixtures containing 100 μL of Aβ^1-40 aggregates (20 nM in the final mixture), 100 μL of benzylideneaniline derivatives (10^−5-10^−10 M in 50% ethanol), 100 μL of [^125I]3′-I-BTA-1 in 50% ethanol (0.04 nM in the final mixture), and 700 μL of phosphate buffered saline (pH=7.2) were incubated for 3 hr at room temperature, filtered through Whatman GF/B glass filters and washed twice with 3 mL of 10% EtOH. The filters were counted in a gamma-counter. Nonspecific binding was determined by reacting in the presence of 10 μM stilbene.

[1] = Biodistribution in normal mice; assay type: in vivo; details: 18F-labeled compounds, tail vein injection, ICR male mice; ratio of brain uptake (% ID/g) at 2 min over 30 min
Method: Biodistribution study of the ^18F-labeled compounds of Example 7 was performed with ICR male mice (weight range 27-28 g). 0.1 mL of a saline solution containing each ^18F-labeled benzylideneaniline compound A, B, C, D, E or F (37-74 kBq) was injected through the tail vein. The mice were sacrificed by decapitation at 2 min and 30 min time points post injection. The organs of interest, including blood, muscle, fat, heart, lung, liver, spleen, stomach, intestine, brain and bone, were separated and weighed, and the remaining radioactivity was counted with a NaI well counter.

T1 sequence (P05067 672-711): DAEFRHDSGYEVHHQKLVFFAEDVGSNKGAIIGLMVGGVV

Compound | affinity to Aβ1-40 (in words) (Aβ1-40 aggregates) | Ki (Aβ1-40 aggregates) [µM] | Brain uptake ratio [1] | melting point [°C]
CNc1ccc(/N=C/c2ccc(F)cc2)cc1 [B, N-(4-fluorobenzylidene)-N′-methylbenzene-1,4-diamine] | have affinity to Aβ1-40 | 1.04 | 5.4 ± 0.5 | 106 to 107
Nc1ccc(/N=C/c2ccc(F)cc2)cc1 [Compound A, N-(4-fluorobenzylidene)benzene-1,4-diamine] | have affinity to Aβ1-40 | 0.304 | 8.7 ± 1.7 | 169 to 170
Oc1ccc(/N=C/c2ccc(F)cc2)cc1 [D] | low binging affinity | > 10 | 24.3 and 24.3 ± 4.6 | 148 to 149
O=C(O)c1cc(/N=C/c2ccc(F)cc2)ccc1O [F, 5-[(4-fluorobenzylidene)amino]-2-hydroxybenzoic acid] | – | > 10 | 11.0 ± 2.0 | –

The remaining lines, values ahead:

affinity to Aβ1-40 (in words) (Aβ1-40 aggregates) | Ki (Aβ1-40 aggregates) [µM] | Brain uptake ratio [1] | melting point [°C] | Compound
have affinity to Aβ1-40 | 0.149 | 2.9 ± 0.5 | 191 to 192 | CN(C)c1ccc(/N=C/c2ccc(F)cc2)cc1 [C, N-(4-fluorobenzylidene)-N′,N′-dimethylbenzene-1,4-diamine]
– | > 10 | 4.2 ± 0.9 | 92 to 93 | COc1ccc(/N=C/c2ccc(F)cc2)cc1 [E, (4-fluorobenzylidene)-(4-methoxyphenyl)amine]
